Measured values as given in EP2902035B1, “Cell-permeable peptide inhibitors of the JNK signal transduction pathway for use in the treatment of inflammatory eye diseases” (Xigen Inflammation Ltd., priority 2010, dated 2012).

What was measured:
Type in all cases: in vivo, Lewis rats
[1] = tested on: Endotoxin-Induced Uveitis (EIU); assay: Scoring of Endotoxin-Induced Uveitis (EIU) by slit lamp; conditions: intravitreous (IVT) administration at LPS challenge (SEQ ID NO: 11: 0.2 µg/injection); scored at 24 hours on a scale from 0 to 5; mean ± SEM
Protocol: For intravenous (IV) injection, 100 µL of saline (NaCl 0.9%) or the JNK-inhibitor (poly-)peptide of SEQ ID NO: 11 (20 µg/kg in saline) were injected in a tail vein using a 25G-needle connected on a 1 mL syringe (Becton Dickinson, France). For intravitreous (IVT) injection, 5 µL of saline or the JNK-inhibitor (poly-)peptide of SEQ ID NO: 11 (0.2 µg/injection in saline) were injected in both eyes using a 30G disposable needle (BD-microfine syringe, nm Médical, Asnière, France). The IV dose of 20 µg/kg (i.e. 3.5 µg/rat in rats weighing 175g) was chosen according to studies showing that the JNK-inhibitor (poly-)peptide of SEQ ID NO: 11 is active at very low doses in other models. For intravitreous injections, the inventors used the minimal dose used in direct ear application after acute noise trauma in patients. This corresponds to 5% of the dose injected intravenously. […]
In a first set of experiment, 70 rats were randomized into 14 experimental groups with 5 rats per group. […] Clinical ocular inflammation was recorded only at 24 hours (see Scoring of Endotoxin-Induced Uveitis (EIU) section). […]
Animals were examined by slit lamp at 24 hours, the clinical peak of the disease in our experiments. The intensity of clinical ocular inflammation was scored on a scale from 0 to 5 for each eye as described previously 10: grade (0) indicates no inflammation; grade (1) indicates the presence of a minimal iris and conjunctival vasodilation but without the observation of flare or cells in the anterior chamber (AC); grade (2) indicates the presence of moderate iris and conjunctival vessel dilation but without evident flare or cells in the AC; grade (3) indicates the presence of intense iris vessels dilation, flare and less than 10 cells per slit lamp field in the AC; grade (4) indicates the presence of more severe clinical signs than grade 3, with more than 10 cells in the AC with or without the formation of a hypopion; grade (5) indicates the presence of intense inflammatory reaction, fibrin formation in the AC and total seclusion of the pupil. […]

[2] = tested on: polymorphonuclear cells (PMN); assay: Quantification of infiltrating polymorphonuclear cells on histological sections in EIU; conditions: IVT injection (SEQ ID NO: 11: 0.2 µg/injection); at 24 hours; mean ± SEM
Protocol: (§1) For immunohistochemistry, eyeballs were collected and fixed for 1h at room temperature in phosphate buffered saline (PBS) containing 4% paraformaldehyde before being rinsed overnight in PBS. The next day, samples were embedded and frozen in optimal cutting-temperature (OCT) compound (Tissue-Tek®, Sakura Finetek, Zoeterwoude, Netherland) and stored at -80°C. Frozen antero-posterior sections of eyes (10 µm thick) were performed at the optic nerve level using a cryostat (Leica CM 3050S, Rueil-Malmaison, France) and mounted on super-frost slides for immunohistochemical analysis.
(§2) A second set of experiment was designed to evaluate the anti-inflammatory effect of the JNK-inhibitor (poly-)peptide of SEQ ID NO: 11 at the cellular and tissue level as well as the biodistribution of this molecule 24 hours after administration. Rats were randomized into 11 experimental groups. 6 groups of rats with uveitis: untreated uveitic rats, rats injected intravenously with NaCl or the JNK-inhibitor (poly-)peptide of SEQ ID NO: 11 and rats injected intravitreously with the vehicle, the JNK-inhibitor (poly-)peptide of SEQ ID NO: 11 or dexamethasone. The 5 additional groups without uveitis were: untreated healthy rats, rats treated by NaCl IV or the JNK-inhibitor (poly-)peptide of SEQ ID NO: 11 IV and rats injected IVT with NaCl or the JNK-inhibitor (poly-)peptide of SEQ ID NO: 11. Three eyes from separate rats were collected per group and used for immunohistochemistry.
(§3) To characterize the cellular infiltrate, sections were double-stained with ED1 and iNOS. […] After staining nuclei with DAPI (Sigma-Aldrich, Saint-Quentin Fallavier, France), sections were mounted in PBS/Glycerol (1/1) and observed by fluorescence photomicroscopy (FXA, Microphot, Nikon, Melville, USA). […] ED1 positive cells and polymorphonuclear cells, identified by the shape of their nuclei stained with DAPI, were quantified on histological sections. […] Results were expressed as mean ± standard error of the mean (SEM).

ED1 positive cells = assay: Quantification of infiltrating ED1 positive cells on histological sections in EIU; conditions: IVT injection (SEQ ID NO: 11: 0.2 µg/injection); 24 hours after LPS challenge; mean ± SEM
Protocol: as §1, §2, §3

In the case of Dexamethasone sodium phosphate, the EIU clinical scores [1] is reported as 1.8 ± 0.4 A.U, the “number of polymorphonuclear cells (PMN)” value [2] is reported as 42 ± 11 and the “number of ED1 positive infiltrating cells” value (ED1 positive cells) is reported as 79 ± 15.
